# Experimental data as given in the supplement of paper PMC10307832.
# Key:
# Test in all cases: relative viability (nuclei count vs DMSO), 5 days (fraction); higher = more cells survive
# [1] = system: A-427
# Outline: (§1)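 Relative viability was taken as the ratio of nuclei in treated wells to nuclei in vehicle wells. Lung cancer cell lines in 1536-well plates received compounds by pin tool one day after seeding, either one drug alone or a fixed anchor-drug dose plus five library-drug doses (not always all listed) in √10 steps. Nuclei were counted on 4× images after 5 days of treatment, and values are medians of duplicate plates.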
# [2] = system: ABC-1
# Outline: as §1
# [3] = system: COR-L23
# Outline: as §1
# [4] = system: EMC-BAC-2
# Outline: as §1
# [5] = system: HARA
# Outline: as §1
# [6] = system: HCC-15
# Outline: as §1
# [7] = system: HCC-366
# Outline: as §1
# [8] = system: HCC-78
# Outline: as §1
# [9] = system: LC-2-ad
# Outline: as §1
# [10] = system: NCI-H1734
# Outline: as §1
# [11] = system: NCI-H1793
# Outline: as §1
# [12] = system: NCI-H1944
# Outline: as §1
# [13] = system: NCI-H1993
# Outline: as §1
# [14] = system: NCI-H2009
# Outline: as §1
# [15] = system: NCI-H2023
# Outline: as §1
# [16] = system: NCI-H2126
# Outline: as §1
# [17] = system: NCI-H2228
# Outline: as §1
# [18] = system: NCI-H23
# Outline: as §1
# [19] = system: NCI-H2405
# Outline: as §1
# [20] = system: NCI-H838
# Outline: as §1
# [21] = system: SK-LU-1
# Outline: as §1
# [22] = system: UMC-11
# Outline: as §1
smiles,measurement,setting,value
NC(=O)Nc1cc(-c2cccc(F)c2)sc1C(=O)N[C@H]1CCCNC1 [AZD7762] + Cc1nc(NC(=O)N2CCC[C@H]2C(N)=O)sc1-c1ccnc(C(C)(C)C(F)(F)F)c1 [Alpelisib] (partner 2 µM),relative viability,[1]; first compound 0.01 µM,1.07
same,relative viability,[1]; first compound 0.03162 µM,1.14
same,relative viability,[1]; first compound 0.1 µM,1.1
same,relative viability,[1]; first compound 0.3162 µM,1.1
same,relative viability,[1]; first compound 1 µM,0.864
same,relative viability,[2]; first compound 0.01 µM,1.03
same,relative viability,[2]; first compound 0.03162 µM,0.831
same,relative viability,[2]; first compound 0.1 µM,0.942
same,relative viability,[2]; first compound 0.3162 µM,0.557
same,relative viability,[2]; first compound 1 µM,0.311
same,relative viability,[3]; first compound 0.01 µM,0.938
same,relative viability,[3]; first compound 0.03162 µM,0.895
same,relative viability,[3]; first compound 0.1 µM,0.797
same,relative viability,[3]; first compound 0.3162 µM,0.621
same,relative viability,[3]; first compound 1 µM,0.162
same,relative viability,[4]; first compound 0.01 µM,0.82
same,relative viability,[4]; first compound 0.03162 µM,0.72
same,relative viability,[4]; first compound 0.1 µM,0.79
same,relative viability,[4]; first compound 0.3162 µM,0.762
same,relative viability,[4]; first compound 1 µM,0.797
same,relative viability,[5]; first compound 0.01 µM,0.889
same,relative viability,[5]; first compound 0.03162 µM,0.887
same,relative viability,[5]; first compound 0.1 µM,0.825
same,relative viability,[5]; first compound 0.3162 µM,0.751
same,relative viability,[5]; first compound 1 µM,0.824
same,relative viability,[6]; first compound 0.01 µM,0.995
same,relative viability,[6]; first compound 0.03162 µM,0.945
same,relative viability,[6]; first compound 0.1 µM,0.983
same,relative viability,[6]; first compound 0.3162 µM,0.93
same,relative viability,[6]; first compound 1 µM,1.12
same,relative viability,[7]; first compound 0.01 µM,0.45
same,relative viability,[7]; first compound 0.03162 µM,0.521
same,relative viability,[7]; first compound 0.1 µM,0.229
same,relative viability,[7]; first compound 0.3162 µM,0.189
same,relative viability,[7]; first compound 1 µM,0.134
same,relative viability,[8]; first compound 0.01 µM,0.371
same,relative viability,[8]; first compound 0.03162 µM,0.419
same,relative viability,[8]; first compound 0.1 µM,0.361
same,relative viability,[8]; first compound 0.3162 µM,0.394
same,relative viability,[8]; first compound 1 µM,0.287
same,relative viability,[9]; first compound 0.01 µM,0.979
same,relative viability,[9]; first compound 0.03162 µM,0.897
same,relative viability,[9]; first compound 0.1 µM,0.795
same,relative viability,[9]; first compound 0.3162 µM,0.612
same,relative viability,[9]; first compound 1 µM,0.433
same,relative viability,[10]; first compound 0.01 µM,0.729
same,relative viability,[10]; first compound 0.03162 µM,0.782
same,relative viability,[10]; first compound 0.1 µM,0.775
same,relative viability,[10]; first compound 0.3162 µM,0.753
same,relative viability,[10]; first compound 1 µM,0.646
same,relative viability,[11]; first compound 0.01 µM,0.835
same,relative viability,[11]; first compound 0.03162 µM,0.795
same,relative viability,[11]; first compound 0.1 µM,0.627
same,relative viability,[11]; first compound 0.3162 µM,0.854
same,relative viability,[11]; first compound 1 µM,0.524
same,relative viability,[12]; first compound 0.01 µM,0.855
same,relative viability,[12]; first compound 0.03162 µM,1.03
same,relative viability,[12]; first compound 0.1 µM,1.01
same,relative viability,[12]; first compound 0.3162 µM,1.08
same,relative viability,[12]; first compound 1 µM,0.893
same,relative viability,[13]; first compound 0.01 µM,0.671
same,relative viability,[13]; first compound 0.03162 µM,0.708
same,relative viability,[13]; first compound 0.1 µM,0.651
same,relative viability,[13]; first compound 0.3162 µM,0.673
same,relative viability,[13]; first compound 1 µM,0.753
same,relative viability,[14]; first compound 0.01 µM,1.3
same,relative viability,[14]; first compound 0.03162 µM,1.15
same,relative viability,[14]; first compound 0.1 µM,1.27
same,relative viability,[14]; first compound 0.3162 µM,1.08
same,relative viability,[14]; first compound 1 µM,1.11
same,relative viability,[15]; first compound 0.01 µM,0.651
same,relative viability,[15]; first compound 0.03162 µM,0.608
same,relative viability,[15]; first compound 0.1 µM,0.436
same,relative viability,[15]; first compound 0.3162 µM,0.328
same,relative viability,[15]; first compound 1 µM,0.108
same,relative viability,[16]; first compound 0.01 µM,0.794
same,relative viability,[16]; first compound 0.03162 µM,0.775
same,relative viability,[16]; first compound 0.1 µM,0.887
same,relative viability,[16]; first compound 0.3162 µM,0.824
same,relative viability,[16]; first compound 1 µM,0.85
same,relative viability,[17]; first compound 0.01 µM,0.886
same,relative viability,[17]; first compound 0.03162 µM,0.666
same,relative viability,[17]; first compound 0.1 µM,0.8
same,relative viability,[17]; first compound 0.3162 µM,0.407
same,relative viability,[17]; first compound 1 µM,0.19
same,relative viability,[18]; first compound 0.01 µM,0.859
same,relative viability,[18]; first compound 0.03162 µM,0.721
same,relative viability,[18]; first compound 0.1 µM,0.745
same,relative viability,[18]; first compound 0.3162 µM,0.562
same,relative viability,[18]; first compound 1 µM,0.418
same,relative viability,[19]; first compound 0.01 µM,0.808
same,relative viability,[19]; first compound 0.03162 µM,0.79
same,relative viability,[19]; first compound 0.1 µM,0.671
same,relative viability,[19]; first compound 0.3162 µM,0.445
same,relative viability,[19]; first compound 1 µM,0.27
same,relative viability,[20]; first compound 0.01 µM,1
same,relative viability,[20]; first compound 0.03162 µM,1.01
same,relative viability,[20]; first compound 0.1 µM,0.871
same,relative viability,[20]; first compound 0.3162 µM,0.959
same,relative viability,[20]; first compound 1 µM,0.616
same,relative viability,[21]; first compound 0.01 µM,1.14
same,relative viability,[21]; first compound 0.03162 µM,0.72
same,relative viability,[21]; first compound 0.1 µM,0.329
same,relative viability,[21]; first compound 0.3162 µM,0.207
same,relative viability,[21]; first compound 1 µM,0.236
same,relative viability,[22]; first compound 0.01 µM,1.03
same,relative viability,[22]; first compound 0.03162 µM,0.962
same,relative viability,[22]; first compound 0.1 µM,1.06
same,relative viability,[22]; first compound 0.3162 µM,1.03
same,relative viability,[22]; first compound 1 µM,0.653
